US10479780B2, “Aminopyrazole derivatives” (Chugai Seiyaku Kabushiki Kaisha, priority 2015, dated 2019)

Assays:
Type in all cases: biochemical
[1] = target: T1, human Lck enzyme (Homo sapiens, UniProt P06239); test: Lck enzyme inhibitory activity (time-resolved fluorometry, biotinylated peptide phosphorylation); conditions: biotinylated peptide phosphorylation, read-out: LCK_IC50
T1 construct: purchased Carna Biosciences, Inc. 08-170
Summary of the method: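 Readout pairs a europium cryptate-labelled anti-phosphotyrosine antibody with XL665-streptavidin, measured by time-resolved fluorescence. IC50 derived from percent inhibition against untreated controls.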

[2] = target: T2, human Yes1 enzyme (Homo sapiens, UniProt P07947); test: Yes1 enzyme inhibitory activity (time-resolved fluorometry, biotinylated peptide phosphorylation); conditions: biotinylated peptide phosphorylation, read-out: YES_IC50
T2 construct: made in house
T2 sequence (P07947 whole entry): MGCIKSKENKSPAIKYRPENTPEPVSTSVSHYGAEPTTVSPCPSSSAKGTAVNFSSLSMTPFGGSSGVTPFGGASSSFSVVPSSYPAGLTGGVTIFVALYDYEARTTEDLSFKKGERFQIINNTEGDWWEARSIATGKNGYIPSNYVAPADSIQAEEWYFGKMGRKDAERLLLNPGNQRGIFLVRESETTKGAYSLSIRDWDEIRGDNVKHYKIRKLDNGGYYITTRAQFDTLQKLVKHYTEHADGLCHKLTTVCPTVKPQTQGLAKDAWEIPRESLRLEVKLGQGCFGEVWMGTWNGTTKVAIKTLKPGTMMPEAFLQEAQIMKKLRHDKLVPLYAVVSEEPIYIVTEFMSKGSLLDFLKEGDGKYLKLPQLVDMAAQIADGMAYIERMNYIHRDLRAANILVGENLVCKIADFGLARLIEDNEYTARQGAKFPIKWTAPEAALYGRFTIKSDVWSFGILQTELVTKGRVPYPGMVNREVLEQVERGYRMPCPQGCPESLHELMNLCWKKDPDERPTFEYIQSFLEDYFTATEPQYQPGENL
Summary of the method: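 Inhibition was expressed against a compound-free control to give IC50, using TR-FRET read-out (Eu-cryptate anti-pTyr antibody, streptavidin-XL665).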

[3] = target: T3, human Src enzyme (Homo sapiens, UniProt P12931); test: Src enzyme inhibitory activity (time-resolved fluorometry, biotinylated peptide phosphorylation); conditions: biotinylated peptide phosphorylation, read-out: SRC_IC50
T3 construct: purchased Carna Biosciences, Inc. 08-173
T3 sequence (P12931 whole entry): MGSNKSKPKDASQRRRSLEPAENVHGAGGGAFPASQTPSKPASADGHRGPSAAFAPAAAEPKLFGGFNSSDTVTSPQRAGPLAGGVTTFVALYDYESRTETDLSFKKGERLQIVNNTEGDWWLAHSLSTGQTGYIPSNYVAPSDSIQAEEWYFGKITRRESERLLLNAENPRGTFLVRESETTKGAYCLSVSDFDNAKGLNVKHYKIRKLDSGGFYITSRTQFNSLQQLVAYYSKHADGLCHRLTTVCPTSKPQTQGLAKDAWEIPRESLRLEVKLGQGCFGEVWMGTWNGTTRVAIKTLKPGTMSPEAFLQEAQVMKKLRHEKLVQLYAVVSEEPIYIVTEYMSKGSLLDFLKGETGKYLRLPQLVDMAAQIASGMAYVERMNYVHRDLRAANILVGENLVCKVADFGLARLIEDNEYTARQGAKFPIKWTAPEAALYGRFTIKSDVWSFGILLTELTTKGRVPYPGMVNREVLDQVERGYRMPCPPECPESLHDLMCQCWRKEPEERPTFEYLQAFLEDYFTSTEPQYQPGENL
Summary of the method: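 Compounds were tested for blocking tyrosine phosphorylation of a biotinylated peptide substrate by recombinant human Src. Phosphorylated product was quantified by time-resolved fluorometry using europium cryptate and XL665 conjugates, and IC50 was calculated against the compound-free control.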

T1 sequence (P06239 whole entry): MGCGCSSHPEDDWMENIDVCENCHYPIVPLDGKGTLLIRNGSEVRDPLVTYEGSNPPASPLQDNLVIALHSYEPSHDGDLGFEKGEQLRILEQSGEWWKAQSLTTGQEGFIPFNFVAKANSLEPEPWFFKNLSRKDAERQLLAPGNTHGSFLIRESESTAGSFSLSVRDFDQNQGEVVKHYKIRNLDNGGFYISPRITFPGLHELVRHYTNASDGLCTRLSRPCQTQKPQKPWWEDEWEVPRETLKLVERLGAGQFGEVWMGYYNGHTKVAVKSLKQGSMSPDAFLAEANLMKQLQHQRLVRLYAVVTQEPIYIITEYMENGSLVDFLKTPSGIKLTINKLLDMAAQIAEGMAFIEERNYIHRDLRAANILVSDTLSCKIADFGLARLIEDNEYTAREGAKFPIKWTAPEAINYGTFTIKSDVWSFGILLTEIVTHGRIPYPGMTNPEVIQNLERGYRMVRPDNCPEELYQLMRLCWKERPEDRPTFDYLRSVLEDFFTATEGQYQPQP

Cc1cc(Oc2ccccc2F)ncc1-n1ncc(C(=O)c2cc3cc(F)c(NS(=O)(=O)CC(=O)N4CCCC4)cc3[nH]2)c1N [Example 4-10-005, N-[2-[5-amino-1-[6-(2-fluorophenoxy)-4-methylpyridin-3-yl]pyrazole-4-carbonyl]-5-fluoro-1H-indol-6-yl]-2-oxo-2-pyrrolidin-1-ylethanesulfonamide]
IC50 [1]: 16 nM
IC50 [2]: 2.8 nM
IC50 [3]: 58 nM

Cc1cc(Oc2ccccc2F)ncc1-n1ncc(C(=O)c2cc3cc(F)c(NS(=O)(=O)CC(=O)N4CCOCC4)cc3[nH]2)c1N [Example 4-10-006, N-[2-[5-amino-1-[6-(2-fluorophenoxy)-4-methylpyridin-3-yl]pyrazole-4-carbonyl]-5-fluoro-1H-indol-6-yl]-2-morpholin-4-yl-2-oxoethanesulfonamide]
IC50 [1]: 19 nM
IC50 [2]: 1 nM
IC50 [3]: 37 nM

Cc1cc2cc(C(=O)c3cnn(-c4ccc(Oc5ccccc5F)cc4C)c3N)[nH]c2cc1NS(=O)(=O)CC(=O)N1CCOCC1 [Example 4-10-007, N-{2-{5-amino-1-[4-(2-fluorophenoxy)-2-methylphenyl]pyrazole-4-carbonyl}-5-methyl-1H-indol-6-yl}-2-morpholin-4-yl-2-oxoethanesulfonamide]
IC50 [1]: 8.5 nM
IC50 [2]: 0.48 nM
IC50 [3]: 13 nM

Cc1cc2cc(C(=O)c3cnn(-c4ccc(Oc5ccccc5F)cc4C)c3N)[nH]c2cc1NS(=O)(=O)CC(=O)NC(C)C [Example 4-10-008, 2-[[2-[5-amino-1-[4-(2-fluorophenoxy)-2-methylphenyl]pyrazole-4-carbonyl]-5-methyl-1H-indol-6-yl]sulfamoyl]-N-propan-2-ylacetamide]
IC50 [1]: 9.6 nM
IC50 [2]: 2 nM
IC50 [3]: 54 nM

Cc1cc2cc(C(=O)c3cnn(-c4c(C)cc(Oc5ccccc5F)cc4F)c3N)[nH]c2cc1NS(=O)(=O)CC(=O)N1CCOCC1 [Example 4-10-009, N-[2-[5-amino-1-[2-fluoro-4-(2-fluorophenoxy)-6-methylphenyl]pyrazole-4-carbonyl]-5-methyl-1H-indol-6-yl]-2-morpholin-4-yl-2-oxoethanesulfonamide]
IC50 [1]: 19 nM
IC50 [2]: 2.7 nM
IC50 [3]: 33 nM

Cc1cc2cc(C(=O)c3cnn(-c4cnc(Oc5c(F)cccc5F)cc4C)c3N)[nH]c2cc1NS(=O)(=O)CC(=O)N1CCOCC1 [Example 4-10-010, N-[2-[5-amino-1-[6-(2,6-difluorophenoxy)-4-methylpyridin-3-yl]pyrazole-4-carbonyl]-5-methyl-1H-indol-6-yl]-2-morpholin-4-yl-2-oxoethanesulfonamide]
IC50 [1]: 7.1 nM
IC50 [2]: 1.3 nM
IC50 [3]: 26 nM

COc1cc2cc(C(=O)c3cnn(-c4ccc(Oc5ccccc5F)cc4C)c3N)[nH]c2cc1NS(=O)(=O)CC(=O)NC(C)C [Example 4-10-011, 2-[[2-[5-amino-1-[4-(2-fluorophenoxy)-2-methylphenyl]pyrazole-4-carbonyl]-5-methoxy-1H-indol-6-yl]sulfamoyl]-N-propan-2-ylacetamide]
IC50 [1]: 3.8 nM
IC50 [2]: 0.64 nM
IC50 [3]: 25 nM

COc1cc2cc(C(=O)c3cnn(-c4ccc(Oc5ccccc5F)cc4C)c3N)[nH]c2cc1NS(=O)(=O)CC(=O)N1CCOCC1 [Example 4-10-012, N-[2-[5-amino-1-[4-(2-fluorophenoxy)-2-methylphenyl]pyrazole-4-carbonyl]-5-methoxy-1H-indol-6-yl]-2-morpholin-4-yl-2-oxoethanesulfonamide]
IC50 [1]: 5.1 nM
IC50 [2]: 0.3 nM
IC50 [3]: 9.8 nM

COc1cc2cc(C(=O)c3cnn(-c4c(C)cc(Oc5ccccc5F)cc4F)c3N)[nH]c2cc1NS(=O)(=O)CC(=O)N1CCOCC1 [Example 4-10-013, N-[2-[5-amino-1-[2-fluoro-4-(2-fluorophenoxy)-6-methylphenyl]pyrazole-4-carbonyl]-5-methoxy-1H-indol-6-yl]-2-morpholin-4-yl-2-oxoethanesulfonamide]
IC50 [1]: 11 nM
IC50 [2]: 1.2 nM
IC50 [3]: 29 nM

COc1cc2cc(C(=O)c3cnn(-c4cnc(Oc5ccccc5F)cc4C)c3N)[nH]c2cc1NS(=O)(=O)CC(=O)N1CCCC1 [Example 4-10-014, N-[2-[5-amino-1-[6-(2-fluorophenoxy)-4-methylpyridin-3-yl]pyrazole-4-carbonyl]-5-methoxy-1H-indol-6-yl]-2-oxo-2-pyrrolidin-1-ylethanesulfonamide]
IC50 [1]: 10 nM
IC50 [2]: 0.54 nM
IC50 [3]: 29 nM

COc1cc2cc(C(=O)c3cnn(-c4cnc(Oc5ccccc5F)cc4C)c3N)[nH]c2cc1NS(=O)(=O)CC(=O)NC(C)C [Example 4-10-015, 2-[[2-[5-amino-1-[6-(2-fluorophenoxy)-4-methylpyridin-3-yl]pyrazole-4-carbonyl]-5-methoxy-1H-indol-6-yl]sulfamoyl]-N-propan-2-ylacetamide]
IC50 [1]: 7.2 nM
IC50 [2]: 1.1 nM
IC50 [3]: 58 nM

COc1cc2cc(C(=O)c3cnn(-c4cnc(Oc5ccccc5F)cc4C)c3N)[nH]c2cc1NS(=O)(=O)CC(=O)N1CCOCC1 [Example 4-10-016, N-[2-[5-amino-1-[6-(2-fluorophenoxy)-4-methylpyridin-3-yl]pyrazole-4-carbonyl]-5-methoxy-1H-indol-6-yl]-2-morpholin-4-yl-2-oxoethanesulfonamide]
IC50 [1]: 5.8 nM
IC50 [2]: 0.59 nM
IC50 [3]: 17 nM

COc1cc2cc(C(=O)c3cnn(-c4cnc(Oc5c(F)cccc5F)cc4C)c3N)[nH]c2cc1NS(=O)(=O)CC(=O)N1CCCC1 [Example 4-10-017, N-[2-[5-amino-1-[6-(2,6-difluorophenoxy)-4-methylpyridin-3-yl]pyrazole-4-carbonyl]-5-methoxy-1H-indol-6-yl]-2-oxo-2-pyrrolidin-1-ylethanesulfonamide]
IC50 [1]: 11 nM
IC50 [2]: 0.93 nM
IC50 [3]: 32 nM

COc1cc2cc(C(=O)c3cnn(-c4cnc(Oc5ccccc5F)cc4C)c3N)[nH]c2cc1NC(C)=O [Example 4-11-001, N-{2-{5-amino-1-[6-(2-fluorophenoxy)-4-methylpyridin-3-yl]pyrazole-4-carbonyl}-5-methoxy-1H-indol-6-yl}acetamide]
IC50 [1]: 5.6 nM
IC50 [2]: 1.5 nM
IC50 [3]: 33 nM

COc1cc2cc(C(=O)c3cnn(-c4cnc(Oc5ccccc5F)cc4C)c3N)[nH]c2cc1NS(=O)(=O)N1CCOCC1 [Example 4-12-001, N-{2-{5-amino-1-[6-(2-fluorophenoxy)-4-methylpyridin-3-yl]pyrazole-4-carbonyl}-5-methoxy-1H-indol-6-yl}morpholine-4-sulfonamide]
IC50 [1]: 45 nM
IC50 [2]: 2.9 nM
IC50 [3]: 140 nM

COc1cc2cc(C(=O)c3cnn(-c4cnc(Oc5ccccc5F)cc4C)c3N)[nH]c2cc1NC(=O)N1CCOCC1 [Example 4-12-002, N-[2-[5-amino-1-[6-(2-fluorophenoxy)-4-methylpyridin-3-yl]pyrazole-4-carbonyl]-5-methoxy-1H-indol-6-yl]morpholine-4-carboxamide]
IC50 [1]: 8 nM
IC50 [2]: 3.2 nM
IC50 [3]: 40 nM

COc1cc2cc(C(=O)c3cnn(-c4ccc(Oc5ccccc5F)cc4C)c3N)[nH]c2cc1NS(=O)(=O)N1CCOCC1 [Example 4-12-003, N-[2-[5-amino-1-[4-(2-fluorophenoxy)-2-methylphenyl]pyrazole-4-carbonyl]-5-methoxy-1H-indol-6-yl]morpholine-4-sulfonamide]
IC50 [1]: 14 nM
IC50 [2]: 0.54 nM
IC50 [3]: 45 nM
